Columns and labels:
[1] = target: Prostaglandin G/H synthase 1 (Homo sapiens, UniProt P23219); assay: biochemical; type: tissue-based, Platelet; details: platelet;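 also: inhibition of COX-1 enzyme activity, with arachidonic acid supplied as substrate; in other assays of this panel Not Active means under 50% inhibition at 10 µM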
[2] = DRUGMATRIX: Serotonin (5-Hydroxytryptamine) 5-HT3 radioligand binding (ligand: [3H] GR-65630); type: cell membranes, Membrane; details: hek293; Not Active = under 50% inhibition at 10 µM
Adenosine receptor A3 = target: T1, Adenosine receptor A3 (Homo sapiens, UniProt P0DMS8); type: cell membranes, CHO-K1, Membrane; details: cho-k1;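 also: radioligand binding assay with AB-MECA serving as the labeled ligand; in other assays of this panel Not Active means under 50% inhibition at 10 µM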
T1 sequence (P0DMS8 whole entry): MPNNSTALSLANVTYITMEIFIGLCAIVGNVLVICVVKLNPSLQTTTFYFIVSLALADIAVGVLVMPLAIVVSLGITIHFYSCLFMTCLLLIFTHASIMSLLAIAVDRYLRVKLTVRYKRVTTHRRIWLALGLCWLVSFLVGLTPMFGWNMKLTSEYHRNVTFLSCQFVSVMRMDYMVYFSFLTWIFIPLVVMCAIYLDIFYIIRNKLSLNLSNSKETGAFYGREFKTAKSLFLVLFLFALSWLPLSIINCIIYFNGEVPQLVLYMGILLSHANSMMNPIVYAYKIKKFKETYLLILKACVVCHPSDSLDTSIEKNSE

[3] = target: T2, C-X-C chemokine receptor type 1 (Homo sapiens, UniProt P25024); also: in other assays of this panel Not Active means under 50% inhibition at 10 µM
T2 sequence (P25024 whole entry): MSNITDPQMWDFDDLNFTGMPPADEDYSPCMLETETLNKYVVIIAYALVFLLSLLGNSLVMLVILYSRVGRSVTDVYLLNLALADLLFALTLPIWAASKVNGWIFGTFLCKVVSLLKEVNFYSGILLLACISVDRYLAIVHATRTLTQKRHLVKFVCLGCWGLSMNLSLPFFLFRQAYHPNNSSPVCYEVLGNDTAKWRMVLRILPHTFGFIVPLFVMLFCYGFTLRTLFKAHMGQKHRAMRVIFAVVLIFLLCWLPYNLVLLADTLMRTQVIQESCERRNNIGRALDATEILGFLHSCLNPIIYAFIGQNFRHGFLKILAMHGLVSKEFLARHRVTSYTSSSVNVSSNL

[4] = target: T3, Alpha-2A adrenergic receptor (Homo sapiens, UniProt P08913); type: cell membranes, Sf9, Membrane; details: for Ki: read-out: Ki; as to all read-outs here: in other assays of this panel Not Active means under 50% inhibition at 10 µM
T3 sequence (P08913 whole entry): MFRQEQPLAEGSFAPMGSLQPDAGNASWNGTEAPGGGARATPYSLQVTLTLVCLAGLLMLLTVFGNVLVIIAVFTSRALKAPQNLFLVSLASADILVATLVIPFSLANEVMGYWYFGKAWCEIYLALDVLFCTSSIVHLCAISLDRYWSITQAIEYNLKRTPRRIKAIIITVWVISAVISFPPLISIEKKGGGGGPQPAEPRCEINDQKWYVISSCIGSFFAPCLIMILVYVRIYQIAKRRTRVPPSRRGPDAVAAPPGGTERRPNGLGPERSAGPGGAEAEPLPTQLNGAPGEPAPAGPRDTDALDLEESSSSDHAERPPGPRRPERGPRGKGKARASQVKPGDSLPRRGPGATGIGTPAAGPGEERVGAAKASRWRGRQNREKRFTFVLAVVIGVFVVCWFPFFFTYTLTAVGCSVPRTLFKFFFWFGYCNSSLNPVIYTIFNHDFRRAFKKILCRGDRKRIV

[5] = target: 5-hydroxytryptamine receptor 4 (Cavia porcellus, UniProt O70528); type: cell membranes, Dunkin-Hartley, Striatum, Membrane; also: in other assays of this panel Not Active means under 50% inhibition at 10 µM
5-hydroxytryptamine receptor 4, sequence (O70528 whole entry): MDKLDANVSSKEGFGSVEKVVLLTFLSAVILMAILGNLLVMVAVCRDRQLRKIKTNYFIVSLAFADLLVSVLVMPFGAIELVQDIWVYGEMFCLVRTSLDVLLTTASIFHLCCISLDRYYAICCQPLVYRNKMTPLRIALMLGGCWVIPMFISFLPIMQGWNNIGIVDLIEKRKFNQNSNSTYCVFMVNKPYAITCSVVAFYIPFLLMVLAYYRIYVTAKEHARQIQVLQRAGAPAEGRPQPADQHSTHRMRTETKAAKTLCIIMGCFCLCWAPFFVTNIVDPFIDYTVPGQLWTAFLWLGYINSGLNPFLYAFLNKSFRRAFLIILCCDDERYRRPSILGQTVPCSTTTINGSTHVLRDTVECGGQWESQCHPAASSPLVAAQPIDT

Prostaglandin G/H synthase 1, sequence (P23219 whole entry): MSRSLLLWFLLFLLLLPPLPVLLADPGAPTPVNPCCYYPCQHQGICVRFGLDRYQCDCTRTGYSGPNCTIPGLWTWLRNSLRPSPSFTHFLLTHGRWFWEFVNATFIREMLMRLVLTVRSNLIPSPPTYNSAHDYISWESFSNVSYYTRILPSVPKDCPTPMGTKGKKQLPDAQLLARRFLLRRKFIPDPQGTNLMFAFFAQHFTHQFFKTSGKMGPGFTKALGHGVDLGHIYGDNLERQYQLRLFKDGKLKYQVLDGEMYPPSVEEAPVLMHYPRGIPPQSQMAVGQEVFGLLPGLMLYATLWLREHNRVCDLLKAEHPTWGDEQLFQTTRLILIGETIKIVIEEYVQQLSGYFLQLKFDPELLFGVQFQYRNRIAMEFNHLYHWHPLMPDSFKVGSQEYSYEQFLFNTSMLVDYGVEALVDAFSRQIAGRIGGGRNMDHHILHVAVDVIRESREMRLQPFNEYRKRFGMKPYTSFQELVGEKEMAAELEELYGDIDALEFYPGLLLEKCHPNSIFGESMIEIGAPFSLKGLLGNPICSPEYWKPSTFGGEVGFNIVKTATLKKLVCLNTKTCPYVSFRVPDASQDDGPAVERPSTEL

| SMILES | IC50 [1] | IC50 [2] | Ki [2] | IC50 (Adenosine receptor A3) | IC50 [3] | IC50 ([4]; sf9) | IC50 [5] | Ki [3] | IC50 ([4]; read-out: IC50) | Ki [4] |
| --- | --- | --- | --- | --- | --- | --- | --- | --- | --- | --- |
| CC(=O)OCC(=O)[C@@]12OC(C)(C)O[C@@H]1C[C@H]1[C@@H]3C[C@H](F)C4=CC(=O)C=C[C@]4(C)[C@@]3(F)[C@@H](O)C[C@@]12C [FLUOCINONIDE] | Not Active | Not Active | Not Active | Not Active | Not Active | Not Active | Not Active |  |  |  |
| O=C(O)P(=O)(O)O [FOSCARNET] | Not Active | Not Active | Not Active | Not Active | Not Active | Not Active | Not Active |  |  |  |
| Cc1ccc(C)c(OCCCC(C)(C)C(=O)O)c1 [GEMFIBROZIL] | Not Active | Not Active | Not Active | Not Active | Not Active | Not Active | Not Active |  |  |  |
| O=c1c(-c2ccc(O)cc2)coc2cc(O)cc(O)c12 [GENISTEIN] | Not Active | Not Active | Not Active | Not Active | Not Active | Not Active | Not Active |  |  |  |
| CCC1=C(C)CN(C(=O)NCCc2ccc(S(=O)(=O)NC(=O)N[C@H]3CC[C@H](C)CC3)cc2)C1=O [GLIMEPIRIDE] | Not Active | Not Active | Not Active | Not Active | Not Active | Not Active | Not Active |  |  |  |
| Nc1cc(-c2ccncc2)c[nH]c1=O [INAMRINONE] | Not Active | Not Active | Not Active | Not Active | Not Active | Not Active | Not Active |  |  |  |
| CCCCC1=NC2(CCCC2)C(=O)N1Cc1ccc(-c2ccccc2-c2nnn[nH]2)cc1 [IRBESARTAN] | Not Active | Not Active | Not Active | Not Active | Not Active | Not Active | Not Active |  |  |  |
| CN1CCC(=C2c3ccccc3CC(=O)c3sccc32)CC1 [KETOTIFEN] | Not Active | Not Active | Not Active | Not Active |  |  | Not Active | Not Active | 2.19 µM | 0.82 µM |
| N[C@@H](Cn1ccc(=O)c(O)c1)C(=O)O [L-MIMOSINE] | Not Active | Not Active | Not Active | Not Active | Not Active | Not Active | Not Active |  |  |  |
| C[N+](C)(C)C[C@H](O)CC(=O)[O-] [LEVOCARNITINE] | Not Active | Not Active | Not Active | Not Active | Not Active | Not Active | Not Active |  |  |  |
| C[C@H]1COc2c(N3CCN(C)CC3)c(F)cc3c(=O)c(C(=O)O)cn1c23.C[C@H]1COc2c(N3CCN(C)CC3)c(F)cc3c(=O)c(C(=O)O)cn1c23.O [LEVOFLOXACIN] | Not Active | Not Active | Not Active | Not Active | Not Active | Not Active | Not Active |  |  |  |
| CCn1cc(C(=O)O)c(=O)c2cc(F)c(N3CCNC(C)C3)c(F)c21 (stereo not drawn) [LOMEFLOXACIN] | Not Active | Not Active | Not Active | Not Active | Not Active | Not Active | Not Active |  |  |  |
| CN1CCCC(CN2c3ccccc3Sc3ccccc32)C1 (stereo not drawn) [MEPAZINE] | Not Active | Not Active | Not Active | Not Active | Not Active |  | Not Active |  | 1.46 µM | 0.546 µM |
| Cc1cccc(C)c1NC(=O)C1CCCCN1C (stereo not drawn) [MEPIVACAINE] | Not Active | Not Active | Not Active | Not Active | Not Active | Not Active | Not Active |  |  |  |
| CN(C)C(=N)NC(=N)N [METFORMIN] | Not Active | Not Active | Not Active | Not Active | Not Active | Not Active | Not Active |  |  |  |
| CC(C)(C)NCC(O)COc1cccc2c1CC(O)C(O)C2 (stereo not drawn) [NADOLOL] | Not Active | Not Active | Not Active | Not Active | Not Active | Not Active | Not Active |  |  |  |
| C[C@]12CC[C@H]3[C@@H](CCC4=CC(=O)CC[C@@H]43)[C@@H]1CC[C@@H]2O [NANDROLONE] | Not Active | Not Active | Not Active | Not Active | Not Active | Not Active | Not Active |  |  |  |
| C[C@@H]1C/C=C/C=C/C=C/C=C/[C@H](O[C@@H]2O[C@H](C)[C@@H](O)[C@H](N)[C@@H]2O)C[C@@H]2O[C@](O)(C[C@@H](O)C[C@H]3O[C@@H]3/C=C/C(=O)O1)C[C@H](O)[C@H]2C(=O)O [NATAMYCIN] | Not Active | Not Active | Not Active | Not Active | Not Active | Not Active | Not Active |  |  |  |
| CN(C)C(=O)Oc1cccc([N+](C)(C)C)c1.[Br-] [NEOSTIGMINE BROMIDE] | Not Active | Not Active | Not Active | Not Active | Not Active | Not Active | Not Active |  |  |  |
| NC(=O)c1cccnc1 [NIACINAMIDE] | Not Active | Not Active | Not Active | Not Active | Not Active | Not Active | Not Active |  |  |  |
| CN1C(=O)CN=C(c2ccccc2)c2cc([N+](=O)[O-])ccc21 [NIMETAZEPAM] | Not Active | Not Active | Not Active | Not Active | Not Active | Not Active | Not Active |  |  |  |
| COc1ccc2c(c1OC)C(=O)O[C@@H]2[C@H]1c2c(cc3c(c2OC)OCO3)CCN1C [NOSCAPINE] | Not Active | Not Active | Not Active | Not Active | Not Active | Not Active | Not Active |  |  |  |
| C[C@@H]1O[C@@H](O[C@H]2C[C@@H](O)[C@]3(CO)[C@H]4[C@H](O)C[C@]5(C)[C@@H](C6=CC(=O)OC6)CC[C@]5(O)[C@@H]4CC[C@]3(O)C2)[C@H](O)[C@H](O)[C@H]1O [OUABAIN] | Not Active | Not Active | Not Active | Not Active | Not Active | Not Active | Not Active |  |  |  |
| NC(=O)N1c2ccccc2CC(=O)c2ccccc21 [OXCARBAZEPINE] | Not Active | Not Active | Not Active | Not Active | Not Active | Not Active | Not Active |  |  |  |
| COc1ccnc(C[S+]([O-])c2nc3ccc(OC(F)F)cc3[nH]2)c1OC (stereo not drawn) [PANTOPRAZOLE] | Not Active | Not Active | Not Active | Not Active | Not Active | Not Active | Not Active |  |  |  |
| N=C(N)c1ccc(OCCCCCOc2ccc(C(=N)N)cc2)cc1 [PENTAMIDINE] | Not Active | Not Active | Not Active | Not Active | Not Active |  | Not Active |  | 1.38 µM | 0.516 µM |
| NNCCc1ccccc1 [PHENELZINE] | Not Active | Not Active | Not Active | Not Active | Not Active | Not Active | Not Active |  |  |  |
| CCc1ccc(CCOc2ccc(CC3SC(=O)NC3=O)cc2)nc1 (stereo not drawn) [PIOGLITAZONE] | Not Active | Not Active | Not Active | Not Active | Not Active | Not Active | Not Active |  |  |  |
| CCCNC(C)C(=O)Nc1ccccc1C (stereo not drawn) [PRILOCAINE] | Not Active | Not Active | Not Active | Not Active | Not Active | Not Active | Not Active |  |  |  |
| CCN(CC)CCNC(=O)c1ccc(N)cc1 [PROCAINAMIDE] | Not Active | Not Active | Not Active | Not Active | Not Active | Not Active | Not Active |  |  |  |

— ChEMBL document CHEMBL1909046, “DrugMatrix in vitro pharmacology data”
